In US7361637B2, “Hypotensors” (Protein Express Co., Ltd., priority 2000, dated 2008):
Several values for one entry are separate records, joined by “and”; a condition that tells them apart may be missing. Equal entries are not always repeated.

Key:
Format in all cases: in vivo, rat
SHR [1] = assay: Weight of arteries after 14 days of administration to SHR; conditions: 1.6 mg/kg intravenously once daily for 14 days
Protocol: The p 1c (pf 5-11) prepared in Example 2 was intravenously administered once daily for consecutive 14 days at the dose of 1.6 mg/kg to a group comprising 4 SHRs. On the 14th day, the rats were killed by bleeding, followed by excising heart and kidney to measure their weights. The result is shown in Table 1 in terms of weight of the organ per 100 g of body weight. […] Weight of each artery was calculated in terms of weight per each area, followed by further converting the calculated value into the value per body weight of each rat and the results were compared and shown in Table 2.

SHR [2] = assay: Weight of heart and kidney after 14 days of administration to SHR; conditions: 1.6 mg/kg intravenously once daily for 14 days
Protocol: The p 1c (pf 5-11) prepared in Example 2 was intravenously administered once daily for consecutive 14 days at the dose of 1.6 mg/kg to a group comprising 4 SHRs. On the 14th day, the rats were killed by bleeding, followed by excising heart and kidney to measure their weights. The result is shown in Table 1 in terms of weight of the organ per 100 g of body weight.

SHR male rats = assay: Hypotensive effect: blood pressure by carotid cannula and pressure transducer after administration to SHR; conditions: for duration of the hypotensive effect from the administration / sustained hypotension at the highest: 1 mg/kg via cannula from external carotid artery
Protocol: A group comprising three SHR male rats (12˜14 weeks age; body weight: 258˜310 g) that are pathological model animals of hypertension was used. Ab mix prepared in Example 1, P mix prepared in Example 2 and dissolved in a physiological saline, and anti-renin neutralizing antibody and captopril, which were the drugs used for comparative study, were intravenously administered at the dose of 0.44 mg/kg, 0.6 mg/kg, 0.12 mg/kg and 100 mg/kg, respectively. Measurement of blood pressure was carried out in such a manner that a cannula inserted into common carotid artery and external carotid artery was connected to a pressure transducer (P23XL; Gould Electronics) and introduced into a pressure processor signal conditioner (Gould Electronics), followed by carrying out measurement every ten minutes until 1 hour from administration of the test substance and every one hour thereafter and the data were recorded on a thermal array recorder (RS 3400; Gould Electronics). […]
A test was carried out for p 1 (pf 1-11), p 2 (pf 5-19) and p 3 (pf 27-41) prepared in Example 2 in the same manner as in Experimental Example 1 using 2 or 4 cases of SHR. The result was that, in the case of administration of 2 mg/kg of p 1, a transient hypertensive action of around 6% was noted immediately after administration, that recovered after 5 minutes from administration, then a hypotensive gradually took place thereafter to an extent of 6% at the highest and a sustained effect was confirmed until 24th hour. […] In the case of administration of 2 mg/kg of p 2, a transient hypotension of around 35% was noted immediately after administration, it recovered at 5 minutes after administration and, after that, a sustained hypotensive action was confirmed until 24th hour to an extent of around 6% at the highest. […] In the case of administration of 10 mg/kg, a hypotension of 7% was noted after 2 hours and, until 24th hour, a sustained hypotensive action where 11% was the highest was confirmed. […]

Compound: p 1c: rat prorenin profragment peptide pf 5-11 (SEQ ID NO: 12) (TASFGRI; listed as Rattus norvegicus)
- Weight of Artery, Femoral Artery, Mean Value (SHR [1]): 0.00089 mg/mm^2/g body weight
- Weight of Artery, Pulmonary Artery, Mean Value (SHR [1]): 0.00081 mg/mm^2/g body weight
- Weight of Artery, Superior Mesenteric Artery, Mean Value (SHR [1]): 0.00096 mg/mm^2/g body weight
- Weight of Artery, Femoral Artery, individual rats (SHR [1]; 1.6 mg/kg): 0.00068 mg/mm^2/g body weight and 0.00094 mg/mm^2/g body weight and 0.00106 mg/mm^2/g body weight and 0.00087 mg/mm^2/g body weight
- Weight of Artery, Pulmonary Artery, individual rats (SHR [1]; 1.6 mg/kg): 0.00067 mg/mm^2/g body weight and 0.00087 mg/mm^2/g body weight and 0.00088 mg/mm^2/g body weight and 0.00082 mg/mm^2/g body weight
- Weight of Artery, Superior Mesenteric Artery, individual rats (SHR [1]; 1.6 mg/kg): 0.00094 mg/mm^2/g body weight and 0.00095 mg/mm^2/g body weight and 0.00096 mg/mm^2/g body weight and 0.001 mg/mm^2/g body weight
- effect on thickening of artery (remodeling of blood vessel) (SHR [1]; compared with control group): suppresses the thickening of artery
- Weight of Organ, Heart, Mean Value (SHR [2]): 0.39 g/100 g body weight
- Weight of Organ, Left Kidney, Mean Value (SHR [2]): 0.35 g/100 g body weight
- Weight of Organ, Right Kidney, Mean Value (SHR [2]): 0.34 g/100 g body weight
- Weight of Organ, Heart, individual rats (SHR [2]; 1.6 mg/kg): 0.37 g/100 g body weight and 0.4 g/100 g body weight (2×) and 0.39 g/100 g body weight
- Weight of Organ, Left Kidney, individual rats (SHR [2]; 1.6 mg/kg): 0.34 g/100 g body weight and 0.35 g/100 g body weight (3×)
- Weight of Organ, Right Kidney, individual rats (SHR [2]; 1.6 mg/kg): 0.34 g/100 g body weight and 0.35 g/100 g body weight (2×) and 0.33 g/100 g body weight
- effect on hypertrophy of heart and kidney (SHR [2]; compared with physiological saline): suppresses hypertrophy of heart and kidney
- sustained hypotension at the highest until 24th hour (SHR male rats; SHR, 10 mg/kg intravenously): 16%
- transient hypertension immediately after administration (SHR male rats; SHR, 10 mg/kg intravenously): 21%

Compound: D-His-Pro-Phe-His-Leu-ψ-[CH2NH]-Leu-Val-Tyr [H 6137, reference compound]
- duration of the hypotensive effect from the administration (SHR male rats): tendency of disappearance of the effect
- sustained hypotension at the highest (SHR male rats; at 3~8 hours after administration): 9%

Compound: p 1: rat prorenin profragment peptide pf 1-11 (SEQ ID NO: 9) (LPTDTASFGRI; listed as Rattus norvegicus)
- transient hypertension immediately after administration (SHR male rats; SHR, 2 mg/kg intravenously): around 6%
- sustained hypotension at the highest after recovery of the transient change (SHR male rats; SHR, 2 mg/kg intravenously, until 24th hour): 6%
- hypotension at 6 hours after administration (SHR male rats; SHR, 10 mg/kg intravenously): about 7%

Compound: p 2a: rat prorenin profragment peptide pf 12-19 (SEQ ID NO: 13) (LLKKMPSV; listed as Rattus norvegicus)
- duration of the hypotensive effect from the administration (SHR male rats): ≥ 12 h
- sustained hypotension at the highest (SHR male rats; at 5~8 hours after administration): 11%
- sustained hypotension at the highest until 24 hours (SHR male rats; SHR, 1 mg/kg intravenously): 14%
- transient hypertension immediately after administration (SHR male rats; SHR, 1 mg/kg intravenously): 6%

Compound: p 2b: rat prorenin profragment peptide pf 11-15 (SEQ ID NO: 14) (ILLKK; listed as Rattus norvegicus)
- sustained hypotension at the highest until 24 hours (SHR male rats; SHR, 1 mg/kg intravenously): The same effect was achieved

Compound: C[C@H](CS)C(=O)N1CCC[C@H]1C(=O)O [captopril, reference compound]
- hypotensive action at the 24th hour (completion of the experiment) (SHR male rats; SHR, 100 mg/kg intravenously): no hypotensive action was noted
- maximum hypotension (at the highest) until the 6th hour from the administration (SHR male rats; SHR, 100 mg/kg intravenously): 31%

Compound: p 1a: rat prorenin profragment peptide pf 1-4 (SEQ ID NO: 10) (LPTD; listed as Rattus norvegicus)
- sustained hypotension at the highest until 24th hour (SHR male rats; SHR, 10 mg/kg intravenously): 13%
- transient hypertension immediately after administration (SHR male rats; SHR, 10 mg/kg intravenously): 13%

Compound: p 1b: rat prorenin profragment peptide pf 1-7 (SEQ ID NO: 11) (LPTDTAS; listed as Rattus norvegicus)
- sustained hypotension at the highest until 24th hour (SHR male rats; SHR, 10 mg/kg intravenously): 13%
- transient hypertension immediately after administration (SHR male rats; SHR, 10 mg/kg intravenously): 17%
